Measured values published in patent US7514443B2, “Substituted pyrazolo[1,5-a]pyrimidines as inhibitors of metabotropic glutamate receptors” (Hoffmann-La Roche Inc., priority 2003, dated 2009).

Row | melting point [°C] | Compound
1 | 204 | N#Cc1cnn2c(C(F)(F)F)cc(-c3cccc(Cl)c3)nc12 [Example 1.1, 5-(3-Chloro-phenyl)-7-trifluoromethyl-pyrazolo[1,5-a]pyrimidine-3-carbonitrile]
2 | 231 | FC(F)(F)c1ccc(-c2cc(C(F)(F)F)n3cnc(-c4cccnc4)c3n2)cc1 [Example 8.6, 8-Pyridin-3-yl-4-trifluoromethyl-2-(4-trifluoromethyl-phenyl)-imidazo[1,5-a]pyrimidine]
3 | 197 | Cc1ccc(-c2cc(C(F)(F)F)n3cnc(C#N)c3n2)cc1 [Example 5.4, 2-(4-Methyl-phenyl)-4-trifluoromethyl-imidazo[1,5-a]pyrimidine-8-carbonitrile]
4 | 176 | N#Cc1cnn2c(C(F)(F)F)cc(-c3ccc(C(F)(F)F)cc3)nc12 [Example 1.7, 5-(4-Trifluoromethyl-phenyl)-7-trifluoromethyl-pyrazolo[1,5-a]pyrimidine-3-carbonitrile]
5 | 218 | Cc1ccc(-c2cc(C(F)(F)F)n3ncc(-c4ccncc4)c3n2)cc1C(F)(F)F [Example 4.27, 5-(4-Methyl-3-trifluoromethyl-phenyl)-3-pyridin-4-yl-7-trifluoromethyl-pyrazolo[1,5-a]pyrimidine]
6 | 194 | FC(F)(F)c1cccc(-c2cc(C(F)(F)F)n3cnc(-c4cccnc4)c3n2)c1 [Example 8.5, 8-Pyridin-3-yl-4-trifluoromethyl-2-(3-trifluoromethyl-phenyl)-imidazo[1,5-a]pyrimidine]
7 | 206 | N#Cc1cnn2c(C(F)(F)F)cc(-c3ccc(Cl)c(Cl)c3)nc12 [Example 1.16, 5-(3,4-Dichloro-phenyl)-7-trifluoromethyl-pyrazolo[1,5-a]pyrimidine-3-carbonitrile]
8 | 139 | N#Cc1ncn2c(C(F)(F)F)cc(-c3ccc(Cl)cc3Cl)nc12 [Example 5.7, 2-(2,4-Dichloro-phenyl)-4-trifluoromethyl-imidazo[1,5-a]pyrimidine-8-carbonitrile]
9 | 216 | Cc1cc(-c2cc(C(F)(F)F)n3ncc(C#N)c3n2)ccc1Cl [Example 1.15, 5-(4-Chloro-3-methyl-phenyl)-7-trifluoromethyl-pyrazolo[1,5-a]pyrimidine-3-carbonitrile]
10 | 243 | Cc1cc(-c2ncn3c(C(F)(F)F)cc(-c4ccc(C(F)(F)F)c(C)c4)nc23)ccn1 [Example 8.29, 2-(3-Methyl-4-trifluoromethyl-phenyl)-8-(2-methyl-pyridin-4-yl)-4-trifluoromethyl-imidazo[1,5-a]pyrimidine]
11 | 243 | Cc1cc(-c2cnn3c(C(F)(F)F)cc(-c4ccc(C(F)(F)F)cc4)nc23)ccn1 [Example 4.33, 5-(4-Trifluoromethyl-phenyl)-3-(2-methyl-pyridin-4-yl)-7-trifluoromethyl-pyrazolo[1,5-a]pyrimidine]
12 | 202 | N#Cc1ncn2c(C(F)(F)F)cc(-c3cccc(C(F)(F)F)c3)nc12 [Example 5.11, 2-(3-Trifluoromethyl-phenyl)-4-trifluoromethyl-imidazo[1,5-a]pyrimidine-8-carbonitrile]
13 | 177 | Cc1cc(-c2cc(C(F)(F)F)n3ncc(-c4cccnc4)c3n2)ccc1C(F)(F)F [Example 4.36, 5-(3-Methyl-4-trifluoromethyl-phenyl)-3-pyridin-3-yl-7-trifluoromethyl-pyrazolo[1,5-a]pyrimidine]
14 | 213 | Cc1cc(-c2cnn3c(C(F)F)cc(-c4ccc(C(F)(F)F)cc4)nc23)ccn1 [Example 9.2, 7-Difluoromethyl-3-(2-methyl-pyridin-4-yl)-5-(4-trifluoromethyl-phenyl)-pyrazolo[1,5-a]pyrimidine]
15 | 233 | N#Cc1cnn2c(C(F)(F)F)cc(-c3ccncc3)nc12 [Example 1.22, 5-Pyridin-4-yl-7-trifluoromethyl-pyrazolo[1,5-a]pyrimidine-3-carbonitrile]
16 | 229 | Cc1cc(-c2cnn3c(C(F)(F)F)cc(-c4ccc(OCC(F)(F)F)c(C(F)(F)F)c4)nc23)cc(C)n1 [Example 4.45, 5-[4-(2,2,2-Trifluoroethoxy)-3-trifluoromethyl-phenyl]-3-(2,6-dimethyl-pyridin-4-yl)-7-trifluoromethyl-pyrazolo[1,5-a]pyrimidine]
17 | 240 | FC(F)(F)c1ccc(-c2cc(C(F)(F)F)n3cnc(-c4ccncc4)c3n2)cc1 [Example 8.14, 8-Pyridin-4-yl-4-trifluoromethyl-2-(4-trifluoromethyl-phenyl)-imidazo[1,5-a]pyrimidine]
18 | 223 | Cc1cc(-c2cnn3c(C(F)(F)F)cc(-c4ccc(C(F)(F)F)c(C(F)(F)F)c4)nc23)ccn1 [Example 4.54, 5-(3,4-Bis-trifluoromethyl-phenyl)-3-(2-methyl-pyridin-4-yl)-7-trifluoromethyl-pyrazolo[1,5-a]pyrimidine]
19 | 171 | FC(F)(F)c1cccc(-c2cc(C(F)(F)F)n3ncc(-c4cccnc4)c3n2)c1 [Example 4.13, 5-(3-Trifluoromethyl-phenyl)-3-pyridin-3-yl-7-trifluoromethyl-pyrazolo[1,5-a]pyrimidine]

Row | melting point [°C] | Compound
20 | 201 | Cc1cc(-c2cnn3c(C(F)(F)F)cc(-c4ccc(C(F)(F)F)c(OCC(F)(F)F)c4)nc23)ccn1 [Example 4.52, 3-(2-Methyl-pyridin-4-yl)-5-[3-(2,2,2-trifluoro-ethoxy)-4-trifluoromethyl-phenyl]-7-trifluoromethyl-pyrazolo[1,5-a]pyrimidine]
21 | 202 | FC(F)(F)c1ccc(-c2cc(C(F)(F)F)n3ncc(-c4ccccn4)c3n2)cc1 [Example 4.12, 5-(4-Trifluoromethyl-phenyl)-3-pyridin-2-yl-7-trifluoromethyl-pyrazolo[1,5-a]pyrimidine]
22 | 236 | Cc1ccc(-c2cc(C(F)(F)F)n3cnc(-c4cccnc4)c3n2)cc1C(F)(F)F [Example 8.7, 2-(4-Methyl-3-trifluoromethyl-phenyl)-8-pyridin-3-yl-4-trifluoromethyl-imidazo[1,5-a]pyrimidine]
23 | 205 | N#Cc1ncn2c(C(F)(F)F)cc(-c3ccc(Cl)cc3)nc12 [Example 5.2, 2-(4-Chloro-phenyl)-4-trifluoromethyl-imidazo[1,5-a]pyrimidine-8-carbonitrile]
24 | 212 | CCOc1cc(-c2cc(C(F)(F)F)n3cnc(-c4ccncc4)c3n2)ccc1C(F)(F)F [Example 8.30, 2-(3-Ethoxy-4-trifluoromethyl-phenyl)-8-pyridin-4-yl-4-trifluoromethyl-imidazo[1,5-a]pyrimidine]
25 | 274 | FC(F)(F)c1cc(-c2ccc(Cl)cc2)nc2c(-c3ccncc3)cnn12 [Example 4.2, 5-(4-Chloro-phenyl)-3-pyridin-4-yl-7-trifluoromethyl-pyrazolo[1,5-a]pyrimidine]
26 | 251 | CCOc1cc(-c2cc(C(F)(F)F)n3ncc(-c4ccncc4)c3n2)ccc1C(F)(F)F [Example 4.47, 5-(3-Ethoxy-4-trifluoromethyl-phenyl)-3-pyridin-4-yl-7-trifluoromethyl-pyrazolo[1,5-a]pyrimidine]
27 | 236 | Cc1cc(-c2cc(C(F)F)n3ncc(-c4ccncc4)c3n2)ccc1C(F)(F)F [Example 9.3, 7-Difluoromethyl-5-(3-methyl-4-trifluoromethyl-phenyl)-3-pyridin-4-yl-pyrazolo[1,5-a]pyrimidine]
28 | 178 | CCOc1ccc(-c2cc(C(F)(F)F)n3ncc(-c4cccnc4)c3n2)cc1C(F)(F)F [Example 4.40, 5-(4-Ethoxy-3-trifluoromethyl-phenyl)-3-pyridin-3-yl-7-trifluoromethyl-pyrazolo[1,5-a]pyrimidine]
29 | 254 | Cc1cc(-c2cc(C(F)(F)F)n3cnc(-c4ccncc4)c3n2)ccc1Cl [Example 8.10, 2-(4-Chloro-3-methyl-phenyl)-8-pyridin-4-yl-4-trifluoromethyl-imidazo[1,5-a]pyrimidine]
30 | 222 | FC(F)c1cc(-c2ccc(C(F)(F)F)cc2)nc2c(-c3ccncc3)cnn12 [Example 9.1, 7-Difluoromethyl-3-pyridin-4-yl-5-(4-trifluoromethyl-phenyl)-pyrazolo[1,5-a]pyrimidine]
31 | 265 | Fc1ccc(-c2cc(C(F)(F)F)n3ncc(-c4ccncc4)c3n2)cc1Cl [Example 4.7, 5-(3-Chloro-4-fluoro-phenyl)-3-pyridin-4-yl-7-trifluoromethyl-pyrazolo[1,5-a]pyrimidine]
32 | 240 | Cc1cc(-c2cnn3c(C(F)(F)F)cc(-c4ccc(Cl)c(C)c4)nc23)ccn1 [Example 4.30, 5-(4-Chloro-3-methyl-phenyl)-3-(2-methyl-pyridin-4-yl)-7-trifluoromethyl-pyrazolo[1,5-a]pyrimidine]
33 | 257 | CCOc1cc(-c2cc(C(F)(F)F)n3ncc(-c4cc(C)nc(C)c4)c3n2)ccc1C(F)(F)F [Example 4.48, 3-(2,6-Dimethyl-pyridin-4-yl)-5-(3-ethoxy-4-trifluoromethyl-phenyl)-7-trifluoromethyl-pyrazolo[1,5-a]pyrimidine]
34 | 234 | Cc1cc(-c2ncn3c(C(F)(F)F)cc(-c4cccc(C(F)(F)F)c4)nc23)ccn1 [Example 8.25, 8-(2-Methyl-pyridin-4-yl)-4-trifluoromethyl-2-(3-trifluoromethyl-phenyl)-imidazo[1,5-a]pyrimidine]
35 | 211 | FC(F)(F)c1ccc(-c2cc(C(F)(F)F)n3cnc(-c4ccncc4)c3n2)cc1C(F)(F)F [Example 8.34, 2-(3,4-Bis-trifluoromethyl-phenyl)-8-pyridin-4-yl-4-trifluoromethyl-imidazo[1,5-a]pyrimidine]
36 | 226 | Cc1cc(-c2cnn3c(C(F)(F)F)cc(-c4ccc(Br)cc4)nc23)ccn1 [Example 4.56, 5-(4-Bromo-phenyl)-3-(2-methyl-pyridin-4-yl)-7-trifluoromethyl-pyrazolo[1,5-a]pyrimidine]
37 | 209 | FC(F)(F)c1ccc(-c2cc(C(F)(F)F)n3ncc(-c4ccncc4)c3n2)cc1C(F)(F)F [Example 4.53, 5-(3,4-Bis-trifluoromethyl-phenyl)-3-pyridin-4-yl-7-trifluoromethyl-pyrazolo[1,5-a]pyrimidine]
